This is an account of results in PubChem BioAssay (NCI).

Values joined by “and” are separate entries in the source; they are usually repeats but may differ in a detail not shown here. Equal values may be shown once.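 Five concentrations, 48 hours, 96-well plates. Abbreviation: GI50, concentration required for 50% inhibition of growth. TGI: concentration producing complete growth inhibition.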

Test systems include SNB-19 CNS; RPMI-8226 leukemia; SW-620 colon; SF-268 CNS; CAKI-1 renal; MOLT-4 leukemia; CCRF-CEM leukemia; SK-MEL-5 melanoma; SK-MEL-28 melanoma; A549 NSCLC.
Common to all, as to assay: NCI-60 cell line screen, 48 h

As for `CCOC(=O)c1[nH]c2cccc3c2c1CC(Br)C3=O` (stereo unspecified), the TGI in the experiment with SNB-19 CNS was determined as 30.7 µM; in the experiment on RPMI-8226 leukemia, 26.7 µM; with SW-620 colon, 5.41 µM; with SF-268 CNS, 32.9 µM; in the experiment on CAKI-1 renal, 23.6 µM; in the experiment with MOLT-4 leukemia, 6.33 µM. The TGI was over 100 µM in the experiment with CCRF-CEM leukemia, 33.1 µM in the experiment with SK-MEL-5 melanoma, 38.4 µM in the experiment on SK-MEL-28 melanoma and 38.2 µM in the experiment on A549 NSCLC.

For `O=[N+]([O-])c1ccc(OCCNc2cccc3ccccc23)cc1`, the TGI in the experiment on SNB-19 CNS, in the experiment with RPMI-8226 leukemia, with SW-620 colon, with SF-268 CNS, in the experiment on CAKI-1 renal and in the experiment with MOLT-4 leukemia was over 100 µM each time. The TGI in the experiment on CCRF-CEM leukemia, in the experiment on SK-MEL-5 melanoma, with SK-MEL-28 melanoma and in the experiment on A549 NSCLC was over 100 µM in each case.

Regarding `Cc1c2ncccc2c(C)c2c1[nH]c1ccc(O)cc12`, the GI50 in the experiment on SNB-19 CNS is 19.7 µM; in the experiment on RPMI-8226 leukemia, 3.07 µM; in the experiment with SW-620 colon, 7.83 µM; in the experiment with SF-268 CNS, 7.55 µM; with CCRF-CEM leukemia, 4.65 µM; in the experiment on SK-MEL-5 melanoma, 3.95 µM. The GI50 in the experiment with A549 NSCLC is 4.89 µM and 1.93 µM. The TGI in the experiment on SNB-19 CNS is 20.2 µM and 84.3 µM; with RPMI-8226 leukemia, 8.78 µM and 15.4 µM; in the experiment with SW-620 colon, 39.9 µM; in the experiment with SF-268 CNS, 19.1 µM; in the experiment on CAKI-1 renal, 15.8 µM; with MOLT-4 leukemia, 3.56 µM and 2.13 µM. Further, the TGI is 5.49 µM with CCRF-CEM leukemia; 20.4 µM and 15 µM in the experiment on SK-MEL-5 melanoma; 27.3 µM in the experiment with SK-MEL-28 melanoma; 15.4 µM and 13 µM in the experiment with A549 NSCLC.

`O=c1oc2ccccc2c(Cl)c1Cl`: the GI50 is 10.5 µM in the experiment on SNB-19 CNS; 2.71 µM in the experiment with RPMI-8226 leukemia; 1.51 µM with SW-620 colon; 3.91 µM in the experiment with SF-268 CNS; 2.69 µM in the experiment with CAKI-1 renal; 3.37 µM in the experiment with MOLT-4 leukemia. In addition, the GI50 with CCRF-CEM leukemia is 0.595 µM; with SK-MEL-5 melanoma, 4.94 µM; in the experiment with SK-MEL-28 melanoma, 2.68 µM; with A549 NSCLC, 15.5 µM. For the same compound, the TGI in the experiment on SNB-19 CNS is 22.7 µM; in the experiment on RPMI-8226 leukemia it was 8.66 µM; in the experiment on SW-620 colon, 5.6 µM; with SF-268 CNS it was 16.3 µM; with CAKI-1 renal it was 8.97 µM; in the experiment with MOLT-4 leukemia it was over 100 µM. Moreover, the TGI in the experiment with CCRF-CEM leukemia was 30 µM; with SK-MEL-5 melanoma it was 16.9 µM; in the experiment on SK-MEL-28 melanoma, 7.76 µM; with A549 NSCLC it was 32.2 µM.

On to `Nc1nc(SCC(=O)O)[nH]c(=O)c1N`, for which the TGI in the experiment with SNB-19 CNS is over 100 µM; in the experiment on RPMI-8226 leukemia it was 99.7 µM; in the experiment with SW-620 colon, over 100 µM; in the experiment on SF-268 CNS it was over 100 µM; in the experiment with CAKI-1 renal, over 100 µM; in the experiment with MOLT-4 leukemia, over 100 µM. Further, the TGI was 7.24 µM in the experiment with CCRF-CEM leukemia, over 100 µM with SK-MEL-5 melanoma, over 100 µM in the experiment with SK-MEL-28 melanoma and over 100 µM in the experiment on A549 NSCLC.

As to `Clc1ccc(Nc2ccnc(NCCNc3ccnc4cc(Cl)ccc34)n2)cc1`, the GI50 is 1.54 µM in the experiment on SNB-19 CNS; 1.38 µM with RPMI-8226 leukemia; 1.14 µM with SW-620 colon; 1.45 µM with SF-268 CNS; 1.59 µM in the experiment with CAKI-1 renal; 1.49 µM with MOLT-4 leukemia. Moreover, the GI50 was 1.01 µM in the experiment with CCRF-CEM leukemia, 1.31 µM with SK-MEL-5 melanoma, 1.58 µM with SK-MEL-28 melanoma and 1.53 µM in the experiment on A549 NSCLC. For the same compound, the TGI in the experiment on SNB-19 CNS turned out to be 3.07 µM; in the experiment on RPMI-8226 leukemia, 3.73 µM; in the experiment on SW-620 colon, 2.64 µM; in the experiment on SF-268 CNS, 2.82 µM; with CAKI-1 renal, 3.01 µM; in the experiment with MOLT-4 leukemia it was 3.55 µM. Moreover, the TGI was found to be 2.62 µM with CCRF-CEM leukemia, 2.59 µM with SK-MEL-5 melanoma, 3.03 µM in the experiment on SK-MEL-28 melanoma and 3.1 µM in the experiment with A549 NSCLC.

Regarding `C=C(CN1CCc2ccccc2C1)c1ccc(/C=C/C(=O)Nc2ccccc2N)cc1`, the GI50 is 26.6 µM in the experiment on SNB-19 CNS; 2.92 µM with RPMI-8226 leukemia; 5.07 µM in the experiment on SW-620 colon; 2.44 µM in the experiment with SF-268 CNS; 2.21 µM in the experiment on CAKI-1 renal; 3.18 µM in the experiment with MOLT-4 leukemia. Further, the GI50 in the experiment with CCRF-CEM leukemia was 1.04 µM; in the experiment with SK-MEL-5 melanoma, 13 µM; with SK-MEL-28 melanoma it was 46.7 µM; in the experiment with A549 NSCLC it was 1.79 µM. The TGI in the experiment with SNB-19 CNS was over 100 µM; in the experiment with RPMI-8226 leukemia it was 13.4 µM; with SW-620 colon, over 100 µM; in the experiment on SF-268 CNS, 55.3 µM; with CAKI-1 renal, 94.5 µM; in the experiment with MOLT-4 leukemia, over 100 µM. For the same compound, the TGI in the experiment on CCRF-CEM leukemia is over 100 µM; in the experiment with SK-MEL-5 melanoma, 31.4 µM; with SK-MEL-28 melanoma, over 100 µM; in the experiment on A549 NSCLC, over 100 µM.

Take `N#CC12CCC(O)C(CC1)C2=O` (stereo unspecified): the TGI in the experiment with SNB-19 CNS is over 100 µM; with RPMI-8226 leukemia it was 57.1 µM; with SF-268 CNS, over 100 µM; in the experiment with CAKI-1 renal, over 100 µM; in the experiment on MOLT-4 leukemia it was over 100 µM; with CCRF-CEM leukemia, over 100 µM. For the same compound, the TGI with SK-MEL-5 melanoma, in the experiment with SK-MEL-28 melanoma and with A549 NSCLC was over 100 µM each time.

Take `COc1ccc2c(CN3CCC(CO)CC3)cc3cc4c(cc3c2c1)OCO4`: the GI50 in the experiment on SNB-19 CNS is 0.392 µM; with RPMI-8226 leukemia it was 0.256 µM; in the experiment on SW-620 colon it was 0.141 µM; in the experiment with SF-268 CNS, 0.176 µM; in the experiment on CAKI-1 renal it was 0.289 µM; in the experiment with MOLT-4 leukemia, 0.175 µM. In addition, the GI50 was 0.172 µM with SK-MEL-5 melanoma and 0.326 µM in the experiment on SK-MEL-28 melanoma. The TGI in the experiment on SNB-19 CNS is 12.1 µM; in the experiment with RPMI-8226 leukemia it was 0.919 µM; with SW-620 colon, 11 µM; in the experiment on SF-268 CNS it was 2.47 µM; with CAKI-1 renal it was 3.42 µM; in the experiment on MOLT-4 leukemia, 1.44 µM. The TGI in the experiment on CCRF-CEM leukemia is 0.373 µM; with SK-MEL-5 melanoma, 0.495 µM; with SK-MEL-28 melanoma, 1.15 µM.

In the case of `O=C(Nc1ccccc1)O/N=C1/CCCC/C1=C\c1ccccc1`, the TGI in the experiment with RPMI-8226 leukemia worked out at 52.5 µM; in the experiment with SW-620 colon, 29.9 µM; in the experiment on SF-268 CNS, 32.8 µM; in the experiment on CAKI-1 renal, 29.2 µM; with MOLT-4 leukemia, 26.5 µM; in the experiment on CCRF-CEM leukemia, 33.1 µM. Further, the TGI with SK-MEL-5 melanoma worked out at 25.6 µM; in the experiment with SK-MEL-28 melanoma it was 31.8 µM.
